The text below walks through data of PubChem BioAssay (NCI).

Each structure is given as a SMILES string.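 Exposure lasted 48 hours, with cells grown in 96-well plates and compounds tested at five concentrations. The concentration for 50% growth inhibition is given as GI50. TGI denotes the concentration required for complete inhibition of growth.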 Where a SMILES comes first, the peptide text is derived from it. The star is where a group is joined. Cbz = O=C(OCc1ccccc1)*; Bn = c1ccc(C*)cc1

Test in all cases: inhibition of tumour cell growth, NCI panel, 48 h
Assay [1] relates to IGROV1 ovarian.
The subject of assay [2] is SK-OV-3 ovarian.
Assay [3] has as its system SNB-75 CNS.
Assay [4] concerns HL-60(TB) leukemia.
Assay [5] has as its system MOLT-4 leukemia.
Assay [6] relates to NCI/ADR-RES ovarian.
Assay [7] concerns HCT-116 colon.
Assay [8] concerns OVCAR-5 ovarian.
In assay [9] the test system is COLO 205 colon.
In assay [10] the test system is TK-10 renal.
The test system of assay [11] is MDA-MB-435.

As to `CC(=O)OCC1OC(NC(=O)N(CCCl)N=O)C(OC(C)=O)C(OC(C)=O)C1OC(C)=O` (stereo not drawn), the TGI was > 100 µM in [1]; > 100 µM in assay [2]; > 100 µM in assay [3]; > 100 µM in [4]; > 31.6 µM in [5]; > 100 µM in [6]. For the same compound, the TGI in assay [7], in assay [8] and in [9] was > 100 µM each time.

With `NC(=O)c1ccc([N+](=O)[O-])cc1`, the TGI in assay [1], in assay [2], in assay [3], in assay [5], in [9] and in assay [10] was > 100 µM throughout.

For the compound `C1CSCCSCSCCS1`, the TGI in assay [1], in [2], in [3], in assay [11], in assay [6] and in assay [7] was > 100 µM each time. The TGI in assay [8], in assay [9] and in assay [10] was > 100 µM each time.

Regarding `O=C1c2cccc(O)c2C(=O)c2c(O)cccc21`, the TGI in [1], in assay [2], in assay [3], in assay [5], in assay [7] and in assay [8] was > 100 µM in each case. The TGI in [9] and in [10] was > 100 µM throughout.

As to `COc1ccc(-c2oc3cc(OC(C)=O)cc(OC(C)=O)c3c(=O)c2OC)cc1`, the TGI in assay [1] was determined as 38 µM; in [2], 80.6 µM; in assay [4], 33.9 µM; in assay [5], 68.4 µM; in assay [11], 25.4 µM; in [6], 36 µM. The TGI in assay [7] was 44.3 µM; in assay [8], 47.3 µM; in [9] it was 33.9 µM; in assay [10], 70.8 µM.

Take `C=CCOCCC(CC=C)C(=O)CC(=O)OC` (stereo not drawn): the TGI in assay [1], in assay [2], in assay [3], in assay [4], in assay [5] and in assay [7] was > 100 µM each time. The TGI in [8] and in [10] was > 100 µM each time.

Consider `NC(CCP(=O)(O)O)C(=O)O` (stereo not drawn), for which the TGI in assay [1], in [4], in assay [5], in assay [11], in assay [6] and in [7] was > 100 µM throughout. Further, the TGI in assay [8] and in [10] was > 100 µM throughout.

As for `CC1C[C@]2(C[C@@H](C)C(=O)O2)OC2CC3(C)C4CCC5C(C)(C)OC(=O)CC[C@@]56C[C@@]46CC[C@]3(C)C12` (stereo partly drawn), the TGI in assay [1], in [3], in assay [4], in assay [5], in [7] and in [8] was > 100 µM throughout. Moreover, the TGI in assay [9] and in assay [10] was > 100 µM in each case.

Consider `O=C(Nc1ccc(Cl)cc1)c1cc([N+](=O)[O-])ccc1O`, for which the TGI in assay [1] came to 69.5 µM; in [2] it was 25.4 µM; in assay [3] it was 20.2 µM; in [4], 8.62 µM; in assay [5], 10.5 µM; in assay [7], 20.8 µM. The TGI in [8] was 81.6 µM; in [9] it was 12.6 µM; in [10], > 60.6 µM.

`COC(=O)C(Cc1ccc(O)cc1)NC(=O)C(COCc1ccccc1)NC(=O)OCc1ccccc1` (stereo not drawn) (Cbz-Ser(Bn)-Tyr-OMe; configuration not given here): the TGI in assay [1] is 32.3 µM; in [2] it was 31.4 µM; in [3], 29.9 µM; in assay [4] it was > 100 µM; in assay [5], > 100 µM; in assay [11], 34.1 µM. Moreover, the TGI was found to be 38.8 µM in [6]; 35.7 µM in [7]; 36.7 µM in [8]; 31.1 µM in [9]; 35.2 µM in [10].

With `c1ccc(-c2n(Cc3ccc4ccccc4c3)c3ccccc3[n+]2Cc2ccc3ccccc3c2)cc1`, the GI50 in assay [2] was 0.309 µM; in [3], 184 nM; in assay [11] it was 288 nM; in assay [6], 2210 nM; in assay [8], 440 nM. For the same compound, the TGI in assay [2] was 1.08 µM; in assay [3], 0.913 µM; in assay [11], 1.06 µM; in assay [6] it was 5.93 µM; in assay [8], 1.76 µM.

For `N=C(N)c1ccc(-c2ccc(-c3ccc4ccccc4c3)s2)s1`, the GI50 in assay [2] was 20.2 µM; in [3], 1930 nM; in [4], 1810 nM; in assay [11] it was 1910 nM; in [9], 1630 nM; in assay [10], 2230 nM. Besides, the TGI was determined as 42.3 µM in assay [2]; 5.3 µM in assay [3]; 5.11 µM in assay [4]; 4.08 µM in assay [11]; 3.17 µM in assay [9]; 4.77 µM in assay [10].
